Source: US4196205A, “3-Acetoxymethyl-7-(iminoacetamido)-cephalosporanic acid derivatives” (priority 1976, dated 1980)
Where two headings read alike, the source gives them in different places.

Tests used:
[1] = system: Escherichia Coli (T) O26 B6; experiment: Experimental infection with Escherichia Coli (T) O26 B6 in mice, repeated (22.5 g, culture diluted 1/5.5); type: in vivo
Protocol: (§1) The product of Example 4 was studied for its activity against an experimental infection of Escherichia Coli in groups of 10 male mice weighing about 21.5 g. The mice recieved an intraperitoneal injection of 0.5 ml of a 24 hour old culture in a nutritive media of Escherichia Coli (T) O26 B6 of the Pasteur Institute diluted 1/6 with distilled water. The test product was administered subcutaneously or orally 1 hour and 5 and 24 hours after the infection and the number of dead was determined after 8 days.
The procedure was repeated with mice weighing about 22.5 g with an intraperitoneal injection of a 24 hour old culture of Escherichia Coli (T) O26 B6 diluted 1/5.5 with distilled water with the product of Example 4.

[2] = system: Escherichia Coli T 96 875; experiment: MIC, dilution in liquid medium; type: cell-based
Protocol: (§2) The method used was a dilution of a liquid medium where a series of tubes received the same quantity of a sterile nutritive media and increasing doses of the test compounds were placed therein. Then each tube was seeded with a bacterial strain and was incubated for 24 to 48 hours at 37° C. in an oven. The increasing inhibition was determined by transillumination to determine the minimum inhibiting concentration (MIC in […]) and the results are reported in the following Tables.

Escherichia Coli 25 575 = experiment: MIC, dilution in liquid medium; type: cell-based
Protocol: as §2

Providencia Du 48 = experiment: MIC, dilution in liquid medium; type: cell-based; settings: for MIC: Providencia
Protocol: as §2

[3] = system: Klebsiella pneumoniae 2 536 Resistant Gentamicine; experiment: MIC, dilution in liquid medium; type: cell-based; settings: for MIC: Klebsiella pneumoniae
Protocol: as §2

[4] = system: Escherichia Coli Exp. TO26 B6; experiment: MIC, dilution in liquid medium; type: cell-based; settings: Escherichia coli
Protocol: as §2

[5] = system: Staphylococcus aureus exp. n° 54 146; experiment: MIC, dilution in liquid medium; type: cell-based; settings: Staphylococcus aureus
Protocol: as §2

[6] = system: Escherichia Coli Resistant Gentamicine, Tobramycine R 55 123 D; experiment: MIC, dilution in liquid medium; type: cell-based; settings: for MIC: Escherichia coli
Protocol: as §2

[7] = system: Proteus mirabilis (indol-) A 235; experiment: MIC, dilution in liquid medium; type: cell-based; settings: Proteus mirabilis, read-out: M.I.C.
Protocol: as §2

Enterobacter cloacae 681 = experiment: MIC, dilution in liquid medium; type: cell-based
Protocol: as §2

[8] = system: Bacillus subtilis ATCC 6 633; experiment: MIC, dilution in liquid medium; type: cell-based; settings: for MIC: Bacillus subtilis
Protocol: as §2

Pseudomonas 8951 RGT = experiment: MIC, dilution in liquid medium; type: cell-based
Protocol: as §2

[9] = system: Streptococcus faecalis 5 432; experiment: MIC, dilution in liquid medium; type: cell-based
Protocol: as §2

[10] = system: Serratia Resistant Gentamicine 2 532; experiment: MIC, dilution in liquid medium; type: cell-based
Protocol: as §2

[11] = system: Escherichia Coli Resistant Tetracycline ATCC 11 303 = UC 1261; experiment: MIC, dilution in liquid medium; type: cell-based; settings: Escherichia coli, read-out: M.I.C.
Protocol: as §2

[12] = system: Staphylococcus aureus UC 1 128 Pen-Resistant; experiment: MIC, dilution in liquid medium; type: cell-based; settings: Staphylococcus aureus
Protocol: as §2

[13] = system: Staphylococcus aureus ATCC 5 638 Pen-Sensible = UC 1061; experiment: MIC, dilution in liquid medium; type: cell-based
Protocol: as §2

[14] = system: Streptococcus faecalis 99 F 74; experiment: MIC, dilution in liquid medium; type: cell-based; settings: Enterococcus faecalis
Protocol: as §2

[15] = system: Pseudomonas 3 935 Exp. SG; experiment: MIC, dilution in liquid medium; type: cell-based; settings: Pseudomonas, 3935EXP.SG
Protocol: as §2

[16] = system: Klebsiella pneumoniae Exp. 52 145; experiment: MIC, dilution in liquid medium; type: cell-based; settings: Klebsiella pneumoniae, read-out: M.I.C.
Protocol: as §2

[17] = system: Proteus vulgaris (indol+) A 232; experiment: MIC, dilution in liquid medium; type: cell-based
Protocol: as §2

Escherichia Coli E6 = experiment: MIC, dilution in liquid medium; type: cell-based
Protocol: as §2

[18] = system: Salmonella typhimurium 420; experiment: MIC, dilution in liquid medium; type: cell-based; settings: Salmonella enterica, TYPHIMURIUM
Protocol: as §2

Escherichia Coli Galle = experiment: MIC, dilution in liquid medium; type: cell-based
Protocol: as §2

[19] = system: Streptococcus pyogenes A 561; experiment: MIC, dilution in liquid medium; type: cell-based; settings: for MIC: Streptococcus pyogenes, read-out: M.I.C.
Protocol: as §2

Straphylococcus Smith = experiment: MIC, dilution in liquid medium; type: cell-based
Protocol: as §2

[20] = system: Escherichia Coli Sensible Tetracycline ATCC 9 637 = 1020; experiment: MIC, dilution in liquid medium; type: cell-based; settings: for MIC: Escherichia coli
Protocol: as §2

[21] = system: Escherichia Coli (T) O26 B6; experiment: Experimental infection with Escherichia Coli (T) O26 B6 in mice (21.5 g, culture diluted 1/6); type: in vivo, male mice
Protocol: as §1

[22] = system: Staphylococcus aureus Co 15 Resistant Cephalexine; experiment: MIC, dilution in liquid medium; type: cell-based
Protocol: as §2

[23] = Enterococcus faecalis, 5432, 24 h, 24 H

CO/N=C(\C(=O)N[C@@H]1C(=O)N2C(C(=O)O)=C(COC(C)=O)CS[C@H]12)c1csc(N)n1 [Example 4, 3-acetoxymethyl-7-[2-(2-amino-4-thiazolyl)-2-methoxyiminoacetamido]-ceph-3-eme-4-carboxylic acid]
0.05 mg/L: MIC ([2]; COLIT96875, 24 h) | MIC ([2]; COLIT96875, 48 h) | MIC (Escherichia Coli 25 575; COLI25575, 24 h) | MIC (Escherichia Coli 25 575; COLI25575, 48 h) | MIC (Escherichia Coli E6; COLIE6, 24 h) | MIC (Escherichia Coli E6; COLIE6, 48 h)
10/10: Mice alive on the 8th Day ([1]; 0,05 mg S.C.) | Mice alive on the 8th Day ([1]; 0,25 mg OS) | mice alive after 8 days ([21]; 0.05 mg subcutaneously) | mice alive after 8 days ([21]; 0.1 mg subcutaneously (first line)) | mice alive after 8 days ([21]; 0.1 mg subcutaneously (second line)) | mice alive after 8 days ([21]; 0.25 mg orally) | mice alive after 8 days ([21]; 0.25 mg subcutaneously) | mice alive after 8 days ([21]; 0.5 mg orally)
2 mg/L: MIC [9, 23] | MIC ([9]; Enterococcus faecalis, 5432, 48 h, 48 H) | MIC ([12]; UC1, 24 h, 24 H) | MIC ([12]; UC1, 48 h, 48 H) | MIC ([14]; 99F74, 24 h, 24 H)
> 40 mg/L: MIC (Pseudomonas 8951 RGT; 48 h)
1 mg/L: MIC ([8]; ATCC6, 48 h, 48 H, read-out: M.I.C.) | MIC ([10]; 24 h, read-out: M.I.C.) | MIC ([10]; 48 h, read-out: M.I.C.) | MIC ([13]; 24 h, read-out: M.I.C.) | MIC ([13]; 48 h, read-out: M.I.C.) | MIC (Straphylococcus Smith; 24 h) | MIC (Straphylococcus Smith; 48 h)
2: MORTALITY AFTER 32H ([1]; 0,1 mg OS) | MORTALITY AFTER 32H ([1]; 0,05 mg OS) | MORTALITY AFTER 22H 30 ([1]; 0,015 mg S.C.) | MORTALITY AFTER 23H 50 ([1]; 0,015 mg S.C.) | MORTALITY AFTER 46H 30 ([1]; 0,015 mg S.C.) | MORTALITY AFTER 4j ([1]; 0,025 mg S.C.)
2 µg/mL: M.I.C. ([17]; 24 H)
0,6 μg/ml: M.I.C. ([3]; 24 H) | M.I.C. ([3]; 48 H) | M.I.C. ([6]; 24 H)
9/10: mice alive after 8 days ([21]; 0.1 mg orally)
3 mg/L: MIC ([5]; 24 h, read-out: M.I.C.) | MIC ([5]; 48 h) | MIC ([14]; 99F74, 48 h, 48 H)
0,05 μg/ml: M.I.C. ([19]; 48 H)
0,6-1 μg/ml: M.I.C. ([6]; 48 H)
4: MORTALITY AFTER 22H 30 ([1]; 0,05 mg OS)
40 µg/mL: M.I.C. ([17]; 48 H)
6/10: Mice alive on the 8th Day ([1]; 0,025 mg S.C.)
0.2 mg/L: MIC ([18]; 24 h, read-out: M.I.C.) | MIC ([18]; 48 h, read-out: M.I.C.) | MIC (Escherichia Coli Galle; 48 h) | MIC ([20]; ATCC9, 24 h, 24 H, read-out: M.I.C.)
0.02 mg/L: MIC ([7]; 24 h) | MIC ([7]; 48 h) | MIC ([11]; 24 h) | MIC ([11]; 48 h) | MIC ([16]; EXP.52145, 24 h, 24 H) | MIC ([16]; EXP.52145, 48 h, 48 H) | MIC ([19]; A561, 24 h, 24 H)
1: MORTALITY AFTER 9H 35 ([1]; 0,1 mg OS) | MORTALITY AFTER 24H ([1]; 0,1 mg OS) | MORTALITY AFTER 70H ([1]; 0,1 mg OS) | MORTALITY AFTER 24H ([1]; 0,05 mg OS) | MORTALITY AFTER 31H ([1]; 0,05 mg OS) | MORTALITY AFTER 25H 50 ([1]; 0,025 mg S.C.) | MORTALITY AFTER 26H 30 ([1]; 0,025 mg S.C.) | deaths after 28.5 h (out of 10 mice) ([21]; 0.1 mg orally)
0,2 μg/ml: M.I.C. ([8]; 24 H) | M.I.C. ([20]; 48 H)
5/10: Mice alive on the 8th Day ([1]; 0,1 mg OS)
40 mg/L: MIC (Enterobacter cloacae 681; Enterobacter cloacae, 681, 24 h) | MIC (Enterobacter cloacae 681; Enterobacter cloacae, 681, 48 h) | MIC (Pseudomonas 8951 RGT; 24 h) | MIC ([15]; 48 h)
5 µg/mL: M.I.C. (Providencia Du 48; 24 H) | M.I.C. (Providencia Du 48; 48 H)
4/10: Mice alive on the 8th Day ([1]; 0,015 mg S.C.)
0.1 mg/L: MIC ([4]; 48 h) | MIC (Escherichia Coli Galle; 24 h)
2/10: Mice alive on the 8th Day ([1]; 0,05 mg OS)
10 mg/L: MIC ([15]; 24 h, read-out: M.I.C.)

C=CCO/N=C(\C(=O)N[C@@H]1C(=O)N2C(C(=O)O)=C(COC(C)=O)CS[C@H]12)c1csc(N)n1 [Example 9, 3-acetoxymethyl-7-[2-(2-amino-4-thiazolyl)-2-(2-propenyl)oxyiminoacetamido]-ceph-3-eme-4-carboxylic acid]
0.05 mg/L: MIC ([16]; EXP.52145, 24 h, 24 H)
0.02 mg/L: MIC ([19]; A561, 24 h, 24 H) | MIC ([19]; A561, 48 h, 48 H)
1 mg/L: MIC ([4]; 24 h) | MIC ([4]; 48 h) | MIC ([6]; 24 h) | MIC ([6]; 48 h) | MIC ([8]; ATCC6, 24 h, 24 H) | MIC ([8]; ATCC6, 48 h, 48 H) | MIC ([10]; 48 h) | MIC ([13]; 24 h) | MIC ([18]; 24 h) | MIC ([20]; ATCC9, 24 h, 24 H) | MIC ([20]; ATCC9, 48 h, 48 H)
0.1 mg/L: MIC ([11]; 24 h) | MIC ([11]; 48 h) | MIC ([16]; EXP.52145, 48 h, 48 H)
3 mg/L: MIC (Providencia Du 48; DU48, 24 h, 24 H)
10 mg/L: MIC ([9]; Enterococcus faecalis, 5432, 48 h, read-out: M.I.C.) | MIC ([18]; 48 h, read-out: M.I.C.) | MIC ([22]; 24 h, read-out: M.I.C.)
20 mg/L: MIC ([15]; 24 h) | MIC ([15]; 48 h) | MIC ([22]; 48 h)
0.4 mg/L: MIC ([10]; 24 h, read-out: M.I.C.)
5 mg/L: MIC (Providencia Du 48; DU48, 48 h, 48 H) | MIC ([3]; 48 h)
2 mg/L: MIC ([3]; 24 h) | MIC ([5]; 24 h) | MIC ([5]; 48 h) | MIC [9, 23] | MIC ([12]; UC1, 24 h, 24 H) | MIC ([12]; UC1, 48 h, 48 H) | MIC ([13]; 48 h) | MIC ([17]; Proteus vulgaris, 24 h)
